Measured values: patent US11425924B2, “Composition and method for controlled-release of amino acids” (Glanbia Nutritionals, Ltd., priority 2018, dated 2022)
≈ marks a conversion by molar mass, not a printed value.

Experiments:
[1] = Zeta potential measurements; type: physicochemical; conditions: uncoated
Experimental: Zeta potential analysis was performed in on a NanoBrook ZetaPlus Zeta Plus instrument from Brookhaven Instruments.

[2] = except at very acidic pH; cited from earlier work

## CC(C)C[C@H](N)C(=O)O [Leucine (L-Leucine), L-Leucine]
[1]
  surface charge: positive charge
[2]
  solubility in water: 24.3 mg/mL (≈ 185 mM)
